Laboratory results as given in patent publication US4636499A, “Sulphenamides” (priority 1984, dated 1987).

Legend:
gastric acid secretion = experiment: Inhibiting effect in vivo on gastric acid secretion in conscious dog; details: 4 μmol/kg; orally by stomach tube; histamine-induced; gastric fistula dogs
Protocol: II. Inhibiting effect in vivo on gastric acid secretion in conscious dog
Chronic gastric fistula dogs were used. These dogs have been surgically provided with a gastric cannula in the stomach and a duodenal fistula used for direct intraduodenal administration of test compounds. Following a 4 weeks' recovery period after surgery, tests were performed once a week on each dog. Food and water were withdrawn 18 hours before each test.
The test compound was suspended in 0.5% Methocel® (90 HG, 15.000, Dow Chem Corp.), the pH was immediately adjusted to about 4 by addition of hydrochloric acid and the suspension administered orally by using a stomach tube. After 1 hour gastric acid secretion was induced by continuous infusion of histamine at individual doses (400-600 nmol/kg, h), resulting in approx. 90% of maximal secretion of gastric acid. The gastric juice was collected by free flow from the gastric cannula in consecutive 30 minutes samples for 2 hours. The samples were titrated to pH 7.0 with 0.1M NaOH using a Radiometer automatic titrator and the acid output was calculated. The percent inhibition of acid secretion was calculated by comparing in each dog the acid output in the tests to the acid output in control tests when only the vehicle was given. The peak inhibitory effect for each compound was determined. […]

[1] = tested on: ethanol-induced gastric lesions; experiment: In vivo cytoprotective effect: effect on ethanol-induced gastric lesions in the rat; design: species or system rat (female Spraque-Dawley); details: for total lengths of lesions in the stomachs: 20 μmol/kg oral
Protocol: III. In vivo cytoprotective effect: Effect on ethanol-induced gastric lesions in the rat
Two groups of female Spraque-Dawley rats (190-220 g) were used, one for the test compound and one for the control experiment. Food, but not water, was removed 24 h before the experiments.
The animals in the test group were treated orally with the test compound dissolved in 0.01M HCl immediately before the test and the animals in the control group were given the vehicle (0.01M HCl) in a dose of 1 ml/kg.
Five or thirty minutes later the rats were given orally 1 ml of absolute ethanol (a standard agent for inducing gastric mucosal lesions).
Thirty minutes later the rats were killed by carbon dioxide asphyxiation, their stomachs dissected out and the gastric mucosae were examined for the presence of necrotic lesions. The total lengths of the lesions in the stomachs were measured in the test group and in the control group, in both cases treated five and thirty minutes before with ethanol.

[2] = biological target: T1, Hog gastric H^+,K^+ -ATPase (Sus scrofa, UniProt P19156); experiment: In vitro inhibition of gastric H^+,K^+-ATPase; assay type: biochemical; details: pH 7,4; 30 minutes of incubation; 10 μg membrane protein (GI-fraction); read-out: concentration at half-maximal inhibition (IC50) (converted)
T1 construct: from tissue; host or cells: hog gastric membranes (GI-fraction)
Protocol: I. In vitro inhibition of gastric H^+,K^+ -ATPase
Hog gastric H^+,K^+ -ATPase was purified according to Saccomani et al., Biochim. Biophys. Acta 465, 311-330, 1977. 10 μg of membrane protein (GI-fraction in the reference listed above) was incubated with 2 mmol/l of piperazine-N,N'-bis-(2-ethane sulfonic acid) buffer pH 7,4 and the test compound in concentrations 10^-7 -10^-4 M in a final volume of 1 ml. (The test compound was dissolved in methanol. Aliquots of these stock solutions were diluted to a final methanol concentration below 1%, which on its own had no effect on the enzyme activities.) After 30 minutes of incubation, the remaining H^+,K^+ -ATPase activity was determined, according to Wallmark et al., Biochim. Biophys. Acta, 728, 31-38, 1983. A dose-response curve was constructed and the concentration at half-maximal inhibition (IC50) could be determined.

T1 sequence (P19156 2-1034 limits assumed): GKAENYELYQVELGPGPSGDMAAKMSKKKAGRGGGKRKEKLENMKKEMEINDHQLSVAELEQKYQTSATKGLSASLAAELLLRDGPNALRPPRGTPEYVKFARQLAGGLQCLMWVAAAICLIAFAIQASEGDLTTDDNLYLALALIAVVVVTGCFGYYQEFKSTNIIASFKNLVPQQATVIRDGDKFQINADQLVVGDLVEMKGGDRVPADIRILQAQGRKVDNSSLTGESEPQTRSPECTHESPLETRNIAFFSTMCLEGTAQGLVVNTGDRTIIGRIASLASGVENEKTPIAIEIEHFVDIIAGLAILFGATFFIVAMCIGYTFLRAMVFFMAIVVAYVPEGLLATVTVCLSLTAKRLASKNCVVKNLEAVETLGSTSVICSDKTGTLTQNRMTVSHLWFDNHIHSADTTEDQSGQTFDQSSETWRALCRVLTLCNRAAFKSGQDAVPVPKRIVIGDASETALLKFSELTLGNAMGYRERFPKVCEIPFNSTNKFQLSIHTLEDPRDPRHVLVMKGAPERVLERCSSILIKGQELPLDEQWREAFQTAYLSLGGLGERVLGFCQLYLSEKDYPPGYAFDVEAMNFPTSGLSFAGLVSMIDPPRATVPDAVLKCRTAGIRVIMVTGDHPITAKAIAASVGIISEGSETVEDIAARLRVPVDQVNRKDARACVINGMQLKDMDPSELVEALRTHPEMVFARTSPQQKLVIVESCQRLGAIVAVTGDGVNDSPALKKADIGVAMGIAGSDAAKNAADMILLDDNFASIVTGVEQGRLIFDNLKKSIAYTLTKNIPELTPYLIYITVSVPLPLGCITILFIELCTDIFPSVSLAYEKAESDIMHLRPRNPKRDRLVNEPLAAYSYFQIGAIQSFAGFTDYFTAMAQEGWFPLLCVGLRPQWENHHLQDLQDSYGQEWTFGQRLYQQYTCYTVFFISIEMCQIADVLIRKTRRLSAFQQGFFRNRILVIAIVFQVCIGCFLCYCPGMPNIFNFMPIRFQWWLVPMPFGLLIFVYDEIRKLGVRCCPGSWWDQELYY
T1 sequence (P18434 whole entry partner): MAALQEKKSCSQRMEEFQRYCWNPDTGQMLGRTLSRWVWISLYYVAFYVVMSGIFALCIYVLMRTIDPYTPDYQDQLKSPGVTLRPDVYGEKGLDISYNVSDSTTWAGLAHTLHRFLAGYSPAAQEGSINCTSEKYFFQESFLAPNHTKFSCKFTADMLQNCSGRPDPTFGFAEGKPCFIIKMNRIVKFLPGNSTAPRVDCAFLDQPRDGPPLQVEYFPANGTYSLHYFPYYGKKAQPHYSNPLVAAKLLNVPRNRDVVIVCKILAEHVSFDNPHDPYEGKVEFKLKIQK

2,4-Dimethyl-3,9-dimethoxy-5H-pyrido[1',2':4,5][1,2,4]thiadiazino[2,3-a]benzimidazol-13-ium tetrafluoroborate (1A) and 2,4-Dimethyl-3,10-dimethoxy-5H-pyrido[1',2':4,5][1,2,4]thiadiazino[2,3-a]benzimidazol-13-ium tetrafluoroborate (1B) (isomeric mixture) [Examples 1A and 1B]
percent inhibition of acid secretion (peak inhibitory effect) (gastric acid secretion): 40% | total lengths of lesions in the stomachs ([1]; 5 min before ethanol, control 11.4 cm): 5.3 cm | total lengths of lesions in the stomachs ([1]; 30 min before ethanol, control 10.4 cm): 4.4 cm | ED50-value (cytoprotective effect) ([1]; oral, ethanol-induced gastric lesions, indicated by lesion reduction at 20 μmol/kg): below 20 μmol/kg | IC50 [2]: 600 nM
